Here are results for twelve compounds from US20260022142A1, “MACROCYCLIC IMMUNOMODULATORS” (Bristol-Myers Squibb Company, priority 2022, published 2026).

Structures are written as SMILES. Numbered stars: 1 amine (or outer) side, 2 acyl side, 3 side chain; on linkers, the order of the positions; unused ones are H or OH. Bridge positions count the residues as written; N and C are the ends. Square brackets hold non-standard residues; d marks the D form. Peptide text beside a SMILES is read from it. * marks the point of attachment. ξ: configuration not given here. Phe(3-CF3) = N[C@@H](Cc1cccc(C(F)(F)F)c1)C(=O)O; Phe(4-COOH) = N[C@@H](Cc1ccc(C(=O)O)cc1)C(=O)O; Bip = N[C@@H](Cc1ccc(-c2ccccc2)cc1)C(=O)O; Phe(3-Me) = Cc1cccc(C[C@H](N)C(=O)O)c1; γGlu = O=C(O)[C@H](CCC(=O)[*:2])N[*:1]; Abu(3S-NH2) = C[C@H](N)[C@H](N)C(=O)O; NH(CH2)12COOH = O=C(O)CCCCCCCCCCCCN*; Bta = N[C@@H](Cc1csc2ccccc12)C(=O)O; Val(3-OH) = CC(C)(O)[C@H](N)C(=O)O; hArg = N=C(N)NCCCC[C@H](N)C(=O)O; d2Pal = N[C@H](Cc1ccccn1)C(=O)O; Cha = N[C@@H](CC1CCCCC1)C(=O)O; Cit = NC(=O)NCCC[C@H](N)C(=O)O; aThr = C[C@H](O)[C@H](N)C(=O)O; Thr(3ξ) = CC(O)[C@H](N)C(=O)O; Dap(Me) = CNC[C@H](N)C(=O)O; dDab = NCC[C@@H](N)C(=O)O; Carboxymethyl = O=C(O)C*; Orn = NCCC[C@H](N)C(=O)O; Aun = NCCCCCCCCCCC(=O)O; Dab = NCC[C@H](N)C(=O)O; Dap = NC[C@H](N)C(=O)O; AEEA = NCCOCCOCC(=O)O

The target in the assay is T1, PD-1/PD-L1 interaction (PE-labeled human PD-L1-Ig binding to Jurkat cell line over-expressing human PD-1) (Homo sapiens, UniProt Q15116).
T1 construct: expressed in transfected cells; host or cells: Jurkat
T1 sequence (Q15116 25-288): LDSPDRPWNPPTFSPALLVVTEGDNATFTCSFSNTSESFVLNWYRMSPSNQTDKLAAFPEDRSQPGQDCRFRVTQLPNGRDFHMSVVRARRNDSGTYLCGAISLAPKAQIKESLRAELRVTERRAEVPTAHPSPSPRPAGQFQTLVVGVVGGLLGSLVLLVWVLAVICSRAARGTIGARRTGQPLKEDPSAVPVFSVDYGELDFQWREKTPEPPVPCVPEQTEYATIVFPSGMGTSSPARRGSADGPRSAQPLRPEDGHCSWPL
The assay can be described thus: Jurkat-PD-1 Cell Binding High-Content Screening Assay (CBA). It is filed as cell-based. The conditions noted are these: Jurkat cell line over-expressing human PD-1; PE-labeled PD-L1-Ig 20 nM final; read-out: Jurkat hPD1-PDL1 IC50. The essentials:
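Jurkat-hPD-1 cells, DMEM/10% FCS; cpd 2 h 37° C; PE-PD-L1-Ig 20 nM final, 1 h; 4% PFA fix + Hoechst 33342, 3× dPBS wash; high-content imaging read-out.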
On to `CC(=O)NCCCC[C@@H]1NC(=O)[C@H](Cc2ccc(-c3ccccc3)cc2)NC(=O)[C@H](Cc2ccc(O)cc2)NC(=O)[C@H](Cc2cccc(C)c2)NC(=O)[C@H](CC(=O)O)NC(=O)[C@H](Cc2ccc(OCC(=O)O)cc2)NC(=O)[C@H](CCCNC(=N)N)NC(=O)CSC[C@@H](C(=O)N[C@@H](CCN)C(=O)NCCCCCCCCCCC(=O)O)NC(=O)[C@H](C(C)O)NC(=O)[C@H](CO)NC(=O)[C@H](CC2CCCCC2)NC(=O)[C@H](CCN)NC(=O)[C@@H](CC(C)C)NC(=O)[C@H](CCCN)NC1=O` (stereo partly drawn) [Compound 3507] ({CH2CO}-RY(Carboxymethyl)D[Phe(3-Me)]Y[Bip]K(Ac)[Orn][dL][Dab][Cha]S[Thr(3ξ)]C[Dab][Aun]-OH; thioether N-14), for which the IC50 is 39.7 nM.

As to `Cc1cccc(C[C@@H]2NC(=O)[C@H](CC(=O)O)NC(=O)[C@H](Cc3ccc(OCC(=O)O)cc3)NC(=O)[C@H](CN)NC(=O)CSC[C@@H](C(=O)N[C@@H](CCN)C(=O)NCCCCCCCCCCC(=O)O)NC(=O)[C@H]([C@H](C)N)NC(=O)[C@H](C(C)C)NC(=O)[C@H](CC3CCCCC3)NC(=O)[C@H](CCN)NC(=O)[C@@H](CC(C)C)NC(=O)[C@H](CCCN)NC(=O)[C@H](Cc3ccc(OCC(=O)O)cc3)NC(=O)[C@H](Cc3ccc(-c4ccccc4)cc3)NC(=O)[C@H](Cc3ccc(OCC(=O)O)cc3)NC2=O)c1` [Compound 2173] ({CH2CO}-[Dap]Y(Carboxymethyl)D[Phe(3-Me)]Y(Carboxymethyl)[Bip]Y(Carboxymethyl)[Orn][dL][Dab][Cha]V[Abu(3S-NH2)]C[Dab][Aun]-OH; thioether N-14), the half-inhibitory concentration (IC50) worked out at 55 nM.

With `Cc1cccc(C[C@@H]2NC(=O)[C@H](CC(=O)O)NC(=O)[C@H](Cc3ccc(OCC(=O)O)cc3)NC(=O)[C@H](CCCCNC(=N)N)NC(=O)CSC[C@@H](C(=O)N[C@@H](CCN)C(=O)NCCCCCCCCCCC(=O)O)NC(=O)[C@H](CO)NC(=O)[C@H](C(C)(C)O)NC(=O)[C@H](CC3CCCCC3)NC(=O)[C@H](CCN)NC(=O)[C@@H](CC(C)C)NC(=O)[C@H](CCCN)NC(=O)[C@H](Cc3ccc(OCC(=O)O)cc3)NC(=O)[C@H](Cc3ccc(-c4ccccc4)cc3)NC(=O)[C@H](Cc3ccc(OCC(=O)O)cc3)NC2=O)c1` [Compound 2234] ({CH2CO}-[hArg]Y(Carboxymethyl)D[Phe(3-Me)]Y(Carboxymethyl)[Bip]Y(Carboxymethyl)[Orn][dL][Dab][Cha][Val(3-OH)]SC[Dab][Aun]-OH; thioether N-14), the half-maximal inhibitory concentration (IC50) amounted to 2.6 nM. To `Cc1cccc(C[C@@H]2NC(=O)[C@H](CC(=O)O)NC(=O)[C@H](Cc3ccc(OCC(=O)O)cc3)NC(=O)[C@H](CN)NC(=O)CSC[C@@H](C(=O)N[C@@H](CCN)C(=O)NCCCCCCCCCCC(=O)O)NC(=O)[C@H]([C@@H](C)O)NC(=O)[C@H](C(C)C)NC(=O)[C@H](CC3CCCCC3)NC(=O)[C@H](CCN)NC(=O)[C@@H](CC(C)C)NC(=O)[C@H](CCCN)NC(=O)[C@H](Cc3ccc(OCC(=O)O)cc3)NC(=O)[C@H](Cc3ccc(-c4ccccc4)cc3)NC(=O)[C@H](C(C)C)NC2=O)c1` [Compound 2731] ({CH2CO}-[Dap]Y(Carboxymethyl)D[Phe(3-Me)]V[Bip]Y(Carboxymethyl)[Orn][dL][Dab][Cha]VTC[Dab][Aun]-OH; thioether N-14) belongs 18.6 nM; to `Cc1cccc(C[C@@H]2NC(=O)[C@H](CC(=O)O)NC(=O)[C@H](Cc3ccc(OCC(=O)O)cc3)NC(=O)[C@H](CN)NC(=O)CSC[C@@H](C(=O)N[C@@H](CCN)C(=O)NCCCCCCCCCCC(=O)O)NC(=O)[C@H](CCCNC(=N)N)NC(=O)[C@H](C(C)C)NC(=O)[C@H](CC3CCCCC3)NC(=O)[C@H](CCN)NC(=O)[C@@H](CC(C)C)NC(=O)[C@H](CCCN)NC(=O)[C@H](C(C)C)NC(=O)[C@H](Cc3ccc(-c4ccccc4)cc3)NC(=O)[C@H](C(C)C)NC2=O)c1` [Compound 2560] ({CH2CO}-[Dap]Y(Carboxymethyl)D[Phe(3-Me)]V[Bip]V[Orn][dL][Dab][Cha]VRC[Dab][Aun]-OH; thioether N-14), 17 nM; to `Cc1cccc(C[C@@H]2NC(=O)[C@H](CC(=O)O)NC(=O)[C@H](Cc3ccc(OCC(=O)O)cc3)NC(=O)[C@H](CN)NC(=O)CSC[C@@H](C(=O)N[C@@H](CCN)C(=O)NCCCCCCCCCCC(=O)O)NC(=O)[C@@H](Cc3ccccn3)NC(=O)[C@H](C(C)C)NC(=O)[C@H](CC3CCCCC3)NC(=O)[C@H](CCN)NC(=O)[C@@H](CC(C)C)NC(=O)[C@H](CCCN)NC(=O)[C@H](Cc3ccc(O)cc3)NC(=O)[C@H](Cc3ccc(-c4ccccc4)cc3)NC(=O)[C@H](C(C)C)NC2=O)c1` [Compound 2764] ({CH2CO}-[Dap]Y(Carboxymethyl)D[Phe(3-Me)]V[Bip]Y[Orn][dL][Dab][Cha]V[d2Pal]C[Dab][Aun]-OH; thioether N-14), 68.9 nM. As for `CC(C)C[C@H]1NC(=O)[C@H](CCCN)NC(=O)[C@H](C(C)C)NC(=O)[C@H](Cc2ccc(-c3ccccc3)cc2)NC(=O)[C@H](C(C)C)NC(=O)[C@H](Cc2csc3ccccc23)NC(=O)[C@H](CC(=O)O)NC(=O)[C@H](Cc2ccc(OCC(=O)O)cc2)NC(=O)[C@H](CCCCNC(=N)N)NC(=O)CSC[C@@H](C(=O)NCCOCCOCC(=O)N[C@@H](CCCN)C(=O)NCCCCCCCCCCC(=O)O)NC(=O)[C@H](CO)NC(=O)[C@H](C(C)C)NC(=O)[C@H](CC2CCCCC2)NC(=O)[C@H](CCN)NC1=O` [Compound 3066] ({CH2CO}-[hArg]Y(Carboxymethyl)D[Bta]V[Bip]V[Orn][dL][Dab][Cha]VSC[AEEA][Orn][Aun]-OH; thioether N-14), the figure is 17.1 nM; as for `Cc1cccc(C[C@@H]2NC(=O)[C@H](CC(=O)O)NC(=O)[C@H](Cc3ccc(OCC(=O)O)cc3)NC(=O)[C@H](C(C)O)NC(=O)CSC[C@@H](C(=O)N[C@@H](CCN)C(=O)NCCCCCCCCCCC(=O)O)NC(=O)[C@H](C(C)O)NC(=O)[C@H](C(C)C)NC(=O)[C@H](CC3CCCCC3)NC(=O)[C@H](CCN)NC(=O)[C@@H](CC(C)C)NC(=O)[C@H](CCCN)NC(=O)[C@H](Cc3ccc(OCC(=O)O)cc3)NC(=O)[C@H](Cc3ccc(-c4ccccc4)cc3)NC(=O)[C@H](CCCNC(N)=O)NC2=O)c1` (stereo partly drawn) [Compound 3485] ({CH2CO}-[Thr(3ξ)]Y(Carboxymethyl)D[Phe(3-Me)][Cit][Bip]Y(Carboxymethyl)[Orn][dL][Dab][Cha]V[Thr(3ξ)]C[Dab][Aun]-OH; thioether N-14), 16.4 nM; as for `CC(=O)NCCCC[C@@H]1NC(=O)[C@H](C(C)(C)O)NC(=O)[C@H](CC2CCCCC2)NC(=O)[C@H](CCN)NC(=O)[C@@H](CC(C)C)NC(=O)[C@H](CCCN)NC(=O)[C@H](Cc2ccc(OCC(=O)O)cc2)NC(=O)[C@H](Cc2ccc(-c3ccccc3)cc2)NC(=O)[C@H](Cc2ccc(C(=O)O)cc2)NC(=O)[C@H](Cc2cccc(C(F)(F)F)c2)NC(=O)[C@H](CC(=O)O)NC(=O)[C@H](Cc2ccc(OCC(=O)O)cc2)NC(=O)[C@H]([C@H](C)O)NC(=O)CSC[C@@H](C(=O)N[C@H](CCN)C(=O)NCCOCCOCC(=O)N[C@@H](CCC(=O)NCCOCCOCC(=O)NCCCCCCCCCCCCC(=O)O)C(=O)O)NC1=O` [Compound 3899] ({CH2CO}-[aThr]Y(Carboxymethyl)D[Phe(3-CF3)][Phe(4-COOH)][Bip]Y(Carboxymethyl)[Orn][dL][Dab][Cha][Val(3-OH)]K(Ac)C[dDab][AEEA][γGlu][AEEA]-{NH(CH2)12COOH}; thioether N-14), 27.4 nM. In the case of `CC(C)C[C@H]1NC(=O)[C@H](CCCN)NC(=O)[C@H](Cc2ccc(O)cc2)NC(=O)[C@H](Cc2ccc(-c3ccccc3)cc2)NC(=O)[C@H](C(C)C)NC(=O)[C@H](Cc2c[nH]c3ccccc23)NC(=O)[C@H](CC(=O)O)NC(=O)[C@H](Cc2ccc(OCC(=O)O)cc2)NC(=O)[C@H](CCCNC(=N)N)NC(=O)CSC[C@@H](C(=O)N[C@@H](CCN)C(=O)NCCCCCCCCCCC(=O)O)NC(=O)[C@H](CCC(=O)O)NC(=O)[C@H](C(C)C)NC(=O)[C@H](CC2CCCCC2)NC(=O)[C@H](CCN)NC1=O` [Compound 3349] ({CH2CO}-RY(Carboxymethyl)DWV[Bip]Y[Orn][dL][Dab][Cha]VEC[Dab][Aun]-OH; thioether N-14), the IC50 was 8.5 nM. As for `CC(C)C[C@H]1NC(=O)[C@H](CCCN)NC(=O)[C@H](Cc2ccc(O)cc2)NC(=O)[C@H](Cc2ccc(-c3ccccc3)cc2)NC(=O)[C@H](C(C)C)NC(=O)[C@H](Cc2cccc(C(F)(F)F)c2)NC(=O)[C@H](CC(=O)O)NC(=O)[C@H](Cc2ccc(OCC(=O)O)cc2)NC(=O)[C@H](CN)NC(=O)CSC[C@@H](C(=O)N[C@@H](CCN)C(=O)NCCOCCOCC(=O)NCCCCCCCCCCC(=O)O)NC(=O)[C@H](CCCN)NC(=O)[C@H](C(C)C)NC(=O)[C@H](CC2CCCCC2)NC(=O)[C@H](CCN)NC1=O` [Compound 1288] ({CH2CO}-[Dap]Y(Carboxymethyl)D[Phe(3-CF3)]V[Bip]Y[Orn][dL][Dab][Cha]V[Orn]C[Dab][AEEA][Aun]-OH; thioether N-14), the figure is 10.3 nM; as for `CNC[C@@H]1NC(=O)CSC[C@@H](C(=O)N[C@@H](CCN)C(=O)NCCOCCOCC(=O)N[C@@H](CCC(=O)NCCOCCOCC(=O)NCCCCCCCCCCCCC(=O)O)C(=O)O)NC(=O)[C@H](CO)NC(=O)[C@H](C(C)(C)O)NC(=O)[C@H](CC2CCCCC2)NC(=O)[C@H](CCN)NC(=O)[C@@H](CC(C)C)NC(=O)[C@H](CCCN)NC(=O)[C@H](Cc2ccc(C(=O)O)cc2)NC(=O)[C@H](Cc2ccc(-c3ccccc3)cc2)NC(=O)[C@H](Cc2ccc(C(=O)O)cc2)NC(=O)[C@H](Cc2cccc(C(F)(F)F)c2)NC(=O)[C@H](CC(=O)O)NC(=O)[C@H](Cc2ccc(OCC(=O)O)cc2)NC1=O` [Compound 3903] ({CH2CO}-[Dap(Me)]Y(Carboxymethyl)D[Phe(3-CF3)][Phe(4-COOH)][Bip][Phe(4-COOH)][Orn][dL][Dab][Cha][Val(3-OH)]SC[Dab][AEEA][γGlu][AEEA]-{NH(CH2)12COOH}; thioether N-14), 49.7 nM.
